According to patent publication US20260053932A1, “COMPOUNDS AND METHODS FOR THE TARGETED DEGRADATION OF ANDROGEN RECEPTOR AND ASSOCIATED METHODS OF USE” (Arvinas Operations, Inc., priority 2020, published 2026):

Test system: androgen receptor (AR) in LNCaP and/or VCaP cells
Experiment: Androgen Receptor ELISA assay (AR degradation)
Type: cell-based
Conditions: degradation of AR ELISA in LNCaP and/or VCaP cells; Table 2C; read-out: DC50 Code*
How it was run: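 VCaP cells grown ≥3 days, then treated 5 h with compound in media containing 1 nM R1881 (10× stock). Cells lysed and AR quantified by sandwich ELISA (mouse AR detection Ab, HRP anti-mouse, TMB). DC50 and Dmax derived from AR degradation.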

Cc1cc(O[C@H]2C(C)(C)[C@H](NC(=O)c3cnc(N4CCC(CN5CC(Oc6ccc7c(c6)C(=O)N(C6CCC(=O)NC6=O)C7=O)C5)CC4)cn3)C2(C)C)cc(C)c1C#N (stereo partly shown) [compound 99, N-((1r,3r)-3-(4-cyano-3,5-dimethylphenoxy)-2,2,4,4-tetramethylcyclobutyl)-5-(4-((3-((2-(2,6-dioxopiperidin-3-yl)-1,3-dioxoisoindolin-5-yl)oxy)azetidin-1-yl)methyl)piperidin-1-yl)pyrazine-2-carboxamide]
DC50: < 1 nM

COCCN(CC1CCN(c2ccc(C(=O)N[C@H]3C(C)(C)[C@H](Oc4ccc(C#N)c(OC)c4)C3(C)C)nn2)CC1)[C@H]1C[C@H](Oc2cc(OC)c3c(c2)C(=O)N(C2CCC(=O)NC2=O)C3=O)C1 (stereo partly shown) [compound 100, N-((1r,3r)-3-(4-cyano-3-methoxyphenoxy)-2,2,4,4-tetramethylcyclobutyl)-6-(4-((((1r,3r)-3-((2-(2,6-dioxopiperidin-3-yl)-7-methoxy-1,3-dioxoisoindolin-5-yl)oxy)cyclobutyl)(2-methoxyethyl)amino)methyl)piperidin-1-yl)pyridazine-3-carboxamide]
DC50: < 1 nM

COCCN(CC1CCN(c2ccc(C(=O)NC3C(C)(C)C(Oc4ccc(C#N)c(OC)c4)C3(C)C)cc2)CC1)C1CC(Oc2ccc3c(c2)C(=O)N([C@@H]2CCC(=O)NC2=O)C3=O)C1 (stereo partly shown) [compound 101, N-((1r,3r)-3-(4-cyano-3-methoxyphenoxy)-2,2,4,4-tetramethylcyclobutyl)-4-(4-((((1r,3r)-3-((2-(2,6-dioxopiperidin-3-yl)-1,3-dioxoisoindolin-5-yl)oxy)cyclobutyl)(2-methoxyethyl)amino)methyl)piperidin-1-yl)benzamide]
DC50: < 1 nM

COc1cc(O[C@H]2C(C)(C)[C@H](NC(=O)c3ccc(N4CCC(CN(C(C)C)[C@H]5C[C@H](Oc6cc(OC)c7c(c6)C(=O)N(C6CCC(=O)NC6=O)C7=O)C5)CC4)nn3)C2(C)C)ccc1C#N (stereo partly shown) [compound 102, N-((1r,3r)-3-(4-cyano-3-methoxyphenoxy)-2,2,4,4-tetramethylcyclobutyl)-6-(4-((((1r,3r)-3-((2-(2,6-dioxopiperidin-3-yl)-7-methoxy-1,3-dioxoisoindolin-5-yl)oxy)cyclobutyl) (isopropyl)amino)methyl)piperidin-1-yl)pyridazine-3-carboxamide]
DC50: < 1 nM

CC(C)Oc1cc(N2CCN(CC3CCN(c4ncc(C(=O)N[C@H]5C(C)(C)[C@H](Oc6ccc(C#N)c(Cl)c6)C5(C)C)cn4)CC3)CC2)cc2c1C(=O)N(C1CCC(=O)NC1=O)C2=O (stereo partly shown) [compound 103, N-((1r,3r)-3-(3-chloro-4-cyanophenoxy)-2,2,4,4-tetramethylcyclobutyl)-2-(4-((4-(2-(2,6-dioxopiperidin-3-yl)-7-isopropoxy-1,3-dioxoisoindolin-5-yl)piperazin-1-yl)methyl)piperidin-1-yl)pyrimidine-5-carboxamide]
DC50: < 1 nM

Cc1cc(O[C@H]2C(C)(C)[C@H](NC(=O)c3ccc(N4CCC(CN(C(C)C)[C@H]5C[C@H](Oc6ccc7c(c6)C(=O)N(C6CCC(=O)NC6=O)C7=O)C5)CC4)cc3)C2(C)C)cc(C)c1C#N (stereo partly shown) [compound 104, N-((1r,3r)-3-(4-cyano-3,5-dimethylphenoxy)-2,2,4,4-tetramethylcyclobutyl)-4-(4-((((1r,3r)-3-((2-(2,6-dioxopiperidin-3-yl)-1,3-dioxoisoindolin-5-yl)oxy)cyclobutyl)(isopropyl)amino)methyl)piperidin-1-yl)benzamide]
DC50: < 1 nM

COCCN(CC1CCN(c2ccc(C(=O)N[C@H]3C(C)(C)[C@H](Oc4ccc(C#N)c(Cl)c4)C3(C)C)cc2)CC1)[C@H]1C[C@H](Oc2cc(OC)c3c(c2)C(=O)N(C2CCC(=O)NC2=O)C3=O)C1 (stereo partly shown) [compound 105, N-((1r,3r)-3-(3-chloro-4-cyanophenoxy)-2,2,4,4-tetramethylcyclobutyl)-4-(4-((((1r,3r)-3-((2-(2,6-dioxopiperidin-3-yl)-7-methoxy-1,3-dioxoisoindolin-5-yl)oxy)cyclobutyl)(2-methoxyethyl)amino)methyl)piperidin-1-yl)benzamide]
DC50: < 1 nM
